Source: patent publication US20230303547A1, “N-CYANOPYRROLIDINES WITH ACTIVITY AS USP30 INHIBITORS” (MISSION THERAPEUTICS LIMITED, priority 2020, published 2023)

What was measured:
Hepatocyte Cl mouse = type: in vitro ADME; conditions: mouse hepatocytes
Method: Hep Cl mouse: in vitro hepatocyte clearance in mouse cells.
Clu: in vitro clearance. Clu as defined here is the scaled clearance, in turn calculated from the intrinsic clearance. The intrinsic clearance is the predicted clearance due to hepatic metabolic reactions, determined from incubation of a compound in a hepatocyte preparation.

[1] = tested on: Eurofins CEREP SafetyScreen44 panel; test: Eurofins CEREP SafetyScreen44 panel; type: binding
Text: Aside from selectivity over other DUB enzymes, it is important for a drug to have low affinity for other targets, and pharmacological profiling may be performed against panels of targets to assess the potential for, and to minimise, potential off-target effects. Examples of targets for which the compounds of the present invention may be screened against are those of the industry standard Eurofins-Cerep SafetyScreen44 panel, which includes 44 targets as a representative selection of GPCR receptors, transporters, ion channels, nuclear receptors, and kinase and non-kinase enzymes. Preferably, compounds of the invention have insignificant affinity against targets of this screening panel. Further examples of targets for which the compounds of the present invention may be screened against are kinases of the Thermo Fisher SelectScreen kinase profiling panel, which includes 39 targets as a representative selection of kinase enzymes. Preferably, compounds of the invention have insignificant affinity against targets of this screening panel. Additionally, examples of a particular enzyme class for which the compounds of the present invention may be screened against are the cathepsins (e.g. cathepsin A, B, C, H, K, L, L2, S, V and Z). Preferably, compounds of the invention have good selectivity for USP30 over one or more of these enzymes. […]

Cathepsin L = Cathepsin L (Homo sapiens (Human), UniProt P07711); test: Cathepsin L IC50; type: biochemical
Chain of Cathepsin L (P07711 114-333, species assumed): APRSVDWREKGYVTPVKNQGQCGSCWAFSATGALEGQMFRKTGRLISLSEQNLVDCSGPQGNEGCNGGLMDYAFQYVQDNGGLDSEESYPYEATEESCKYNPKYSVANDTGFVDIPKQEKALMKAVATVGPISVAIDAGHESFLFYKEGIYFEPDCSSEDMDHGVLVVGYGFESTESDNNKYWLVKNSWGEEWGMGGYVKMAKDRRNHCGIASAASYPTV

[2] = tested on: Salmonella typhimurium strains TA98, TA100, TA1535 and TA97a and the Escherichia Coli strain WP2 uvrA pKM101; test: Bacterial reverse mutation assay (Ames); type: cell-based; conditions: up to 5000 µg/plate with and without metabolic activation
Method: The bacterial reverse mutation assay (Ames Test) may be used to evaluate the mutagenic properties of compounds of the invention, commonly by using the bacterial strain Salmonella typhimurium, which is mutant for the biosynthesis of the amino acid histidine.
(§1) Example 2 was assessed in the bacterial reverse mutation assay (Ames) and in vitro micronucleus assay. All in vitro tests were conducted with and without exogenous metabolic activation using concentrations up to those limited by cytotoxicity or insolubility.

TK6 cells = test: In vitro micronucleus assay; type: cell-based; conditions: 27 hours recovery
Method: The micronucleus assay may be used to determine if a compound is genotoxic by evaluating the presence of micronuclei. Micronuclei may contain chromosome fragments produced from DNA breakage (clastogens) or whole chromosomes produced by disruption of the mitotic apparatus (aneugens).
as §1
Induction of chromosome damage was assessed using the in vitro micronucleus assay in TK6 cells. Example 2 was negative for induction of micronuclei when incubated for 3 hours in the presence of exogenous metabolic activation followed by 27 hours recovery, and also when incubated for 27 hours in the absence of exogenous metabolic activation followed by 27 hours recovery.

[3] = tested on: P-glycoprotein (MDR1), human; test: MDR1-MDCK flux assay; type: in vitro ADME; conditions: dog, read-out: MDR1-MDCK Effective Efflux Ratio
Text: The treatment of CNS disorders, including Alzheimer’s disease, Parkinson’s disease, and other disorders described herein, requires drug molecules to target the brain, which requires adequate penetration of the blood brain barrier. […] The probability that a compound can cross the blood brain barrier may be measured by an in vitro flux assay utilizing a MDR1-MDCK cell monolayer (Madin-Darby Canine Kidney cells transfected with MDR-1 resulting in overexpression of the human efflux transporter P-glycoprotein). Additionally, exposure may also be measured directly in brain and plasma using in vivo animal models.
MDR1-MDCK (Madin-Darby Canine Kidney cell monolayer) (in vitro) flux assay.

WT-MDCK in vitro flux = type: in vitro ADME; conditions: dog
Text: WT-MDCK (wild-type) in vitro flux.

hERG potassium channel = hERG potassium channel (Homo sapiens (Human), UniProt Q12809); test: hERG potassium channel current in CHO cells; type: cell-based; conditions: 30 µM, stably expressed CHO cells
Chain of hERG potassium channel (Q12809 whole entry): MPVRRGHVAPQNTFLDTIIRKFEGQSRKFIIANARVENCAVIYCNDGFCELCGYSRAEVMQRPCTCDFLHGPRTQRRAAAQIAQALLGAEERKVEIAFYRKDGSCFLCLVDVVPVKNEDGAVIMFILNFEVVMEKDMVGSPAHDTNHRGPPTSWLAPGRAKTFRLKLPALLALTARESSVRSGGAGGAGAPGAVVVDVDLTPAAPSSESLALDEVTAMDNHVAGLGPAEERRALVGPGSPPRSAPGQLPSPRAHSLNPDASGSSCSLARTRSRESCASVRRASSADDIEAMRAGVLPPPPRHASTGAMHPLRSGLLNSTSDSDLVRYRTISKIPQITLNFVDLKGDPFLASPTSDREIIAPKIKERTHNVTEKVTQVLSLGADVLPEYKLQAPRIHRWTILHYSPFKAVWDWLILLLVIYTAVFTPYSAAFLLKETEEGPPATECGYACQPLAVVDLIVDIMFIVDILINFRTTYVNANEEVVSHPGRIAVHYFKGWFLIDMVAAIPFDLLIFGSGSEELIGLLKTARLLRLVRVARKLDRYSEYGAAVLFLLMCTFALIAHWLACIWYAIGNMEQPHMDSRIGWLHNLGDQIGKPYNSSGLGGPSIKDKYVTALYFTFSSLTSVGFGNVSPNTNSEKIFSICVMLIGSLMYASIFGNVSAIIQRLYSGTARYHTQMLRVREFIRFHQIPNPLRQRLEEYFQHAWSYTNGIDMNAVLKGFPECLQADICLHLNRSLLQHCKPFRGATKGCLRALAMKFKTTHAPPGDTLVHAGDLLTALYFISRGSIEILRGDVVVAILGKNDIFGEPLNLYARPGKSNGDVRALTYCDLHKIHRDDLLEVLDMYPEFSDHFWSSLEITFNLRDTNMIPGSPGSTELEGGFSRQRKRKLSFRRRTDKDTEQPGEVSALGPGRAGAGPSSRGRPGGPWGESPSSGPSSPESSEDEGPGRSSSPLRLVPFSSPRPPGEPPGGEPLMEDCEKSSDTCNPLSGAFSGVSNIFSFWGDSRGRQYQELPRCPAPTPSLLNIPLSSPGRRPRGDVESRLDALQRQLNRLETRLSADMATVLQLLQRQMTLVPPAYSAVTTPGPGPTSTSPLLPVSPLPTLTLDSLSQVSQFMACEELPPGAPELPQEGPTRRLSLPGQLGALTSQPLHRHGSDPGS
Method: The hERG predictor assay provides valuable information about the possible binding of test compounds to the potassium channel and potential QT prolongation on […]. Inhibition of the hERG current causes QT interval prolongation resulting in potentially fatal ventricular tachyarrhythmia (Torsades de Pointes). Typically, assay data may be generated from an automated patch-clamp assay platform.
Example 2 was evaluated for effects on the hERG potassium channel, in stably expressed CHO cells at concentrations between 0.01 and 30 µM. Example 2 produced maximum inhibition value of 35% of the hERG current amplitude at 30 µM indicating little propensity for affecting the QT interval.

Compound	Hepatocyte Cl mouse Scaled Clu (Hepatocyte Cl mouse) [mL/min/kg]	affinity for targets in this assay [1]	IC50 (Cathepsin L) [µM]	induction of mutations in reverse mutation assay [2]	induction of micronuclei (TK6 cells; 3 hours in the presence of exogenous metabolic activation)	induction of micronuclei (TK6 cells; 27 hours in the absence of exogenous metabolic activation)	efflux ratio [3]	efflux ratio (WT-MDCK in vitro flux)	Papp A→B (WT-MDCK in vitro flux; A-B) [×10⁻⁶ cm/s]	maximum inhibition of the hERG current amplitude (hERG potassium channel) [%]
C[C@@H]1C[C@@H](NC(=O)c2ncc(-c3cc(C#N)ccc3OC3CC3)o2)CN1C#N [Example 1, 5-(5-cyano-2-cyclopropoxyphenyl)-N-((3R,5R)-1-cyano-5-methylpyrrolidin-3-yl)oxazole-2-carboxamide]	117	low affinity	9.9							
COC[C@@H]1C[C@@H](NC(=O)c2ncc(-c3cc(C#N)ccc3OC3CC3)o2)CN1C#N [Example 2, 5-(5-cyano-2-cyclopropoxyphenyl)-N-((3R,5S)-1-cyano-5-(methoxymethyl)pyrrolidin-3-yl)oxazole-2-carboxamide]	105		23.6	did not induce mutations	negative	negative	15	0.7	10.7	35
